# Reference: patent US8158605B2, “Azacytidine analogues and uses thereof” (Mount Sinai School of Medicine, priority 2007, dated 2012)
# Columns and labels:
# [1] = tested on: breast carcinoma cell line MT-3; assay: MTT cytotoxicity; format: cell-based; conditions: MT-3 breast carcinoma, 24 hours
# Description: (§1) The cytotoxicity of Aza-C and 5-Aza-C-5′-elaidic acid was determined in a breast cancer cell line MT-3 and the adriablastin resistant cell line MT-3/ADR. The MT-3/ADR overexpress the MDR-1/p-glycoprotein. […] The cells were incubated for 24 hours. […] Six wells were used per test concentration. The cells were incubated with test compound for 24 hours. […] Similar activity was obtained for Aza-C and 5-Aza-C-5′-elaidic acid in the MT-3 breast carcinoma cell line, but in the MT-3/ADR resistant cell line the activity of Aza-C was lost. […] This may be of importance in the treatment of resistant cancer.
# [2] = tested on: MT-3/ADR resistant breast carcinoma; assay: MTT cytotoxicity; format: cell-based; conditions: MDR1, MT-3/ADR resistant breast carcinoma (overexpress MDR-1/p-glycoprotein), 24 hours
# Description: as §1
# [3] = tested on: DU145; assay: WST-1 cytotoxicity assay; format: cell-based; conditions: Homo sapiens, DU-145
# Description: (§2) Human promyelocytic leukemia cell lines HL60, human histiocytic lymphoma U937, human chronic myelogenous leukemia K562, human acute T cell Jurkat, breast adenocarcinoma MCF-7, urinary bladder carcinoma 5637, prostate carcinoma DU-145 were purchased from American Type Culture Collection. All cell lines except Jurkat were maintained in RPMI 1640 medium (Gibco, Glasgow, UK) supplemented with 10% heat-inactivated fetal calf serum (FCS), 100 U/ml of penicillin, and […] streptomycin, in an atmosphere of 5% CO2 at 37° C. Jurkat cells were cultured in RPMI 1640 medium supplemented with 1.5 g/L sodium bicarbonate, 4.5 g/L glucose, 10 mM sodium pyruvate, and 10% FCS, 100 U/ml of penicillin, and […] streptomycin.
# (§3) MCF-7, DU-145, and 5637 cells (1×10^4/ml) were plated and allowed to adhere and spread for 24 hours. […] Cultures were incubated with WST-1 reagent for 1 hour. The production of formazan was measured by a microplate reader (Bio-Tek Instruments, Elx 800) at 450 nm with a reference wavelength of 650 nm. Growth inhibition was determined as compared to untreated cells (%). IC50 values were calculated using CalcuSyn software (Biosoft).
# [4] = tested on: 5637; assay: WST-1 cytotoxicity assay; format: cell-based
# Description: as §2, §3
# [5] = tested on: MCF-7; assay: WST-1 cytotoxicity assay; format: cell-based; conditions: Homo sapiens, MCF7
# Description: as §2, §3
# [6] = tested on: K562; assay: WST-1 cytotoxicity assay; format: cell-based; conditions: Homo sapiens
# Description: as §2, §3
# [7] = tested on: U937; assay: WST-1 cytotoxicity assay; format: cell-based; conditions: Homo sapiens, U-937
# Description: as §2, §3
# [8] = tested on: HL60; assay: WST-1 cytotoxicity assay; format: cell-based; conditions: Homo sapiens, HL-60
# Description: as §2, §3
# [9] = tested on: Jurkat; assay: WST-1 cytotoxicity assay; format: cell-based; conditions: Homo sapiens
# Description: as §2, §3
# [10] = tested on: estrogen receptor beta; assay: Gene expression of estrogen receptor β by real-time PCR in MCF-7 cells; format: cell-based; conditions: MCF-7, 1 μM, 5 days
# Description: The gene expression (determined on RNA level) of estrogen receptor beta was determined by quantitative real-time PCR. (TaqMan). MCF-7 mammary carcinoma cells were grown in estrogen deficient media (Phenol-Red-free RPMI with 2% glutamine and 10% charcoal-dextran treated fetal calf serum). […] One untreated control was included as control. The cells were harvested after 5 days of exposure to the compounds; they were harvested by trypsination, washed and shock frozen in liquid nitrogen.
# The total RNA was extracted from approximately 10^6 shock frozen MCF-7 cells. The RNA concentration and purity was measured, and RNA was transcribed into cDNA using TaqMan Reverse Trancription reagents (N808-0234). Real-time quantification was performed using standard protocols and premixed PCR reagents. The primer-probe mixes were ordered from Applied Biosystems, ER β (ID Hs00230957_ml) and housekeeping gene hydrocylmethyl-bilane synthase HMBS (ID Hs00609297_ml). Gene expression was calculated using the comparative delta-delta Ct method.
# [11] = tested on: U937, HL60 and K562 cells; assay: Differentiating induction (NBT reduction, benzidine staining); format: cell-based, human; conditions: repeated exposure for 11 (HL60) or 14 (U937, K562) days
# Description: Cell differentiation was studied in terms of morphology. […] After initial treatment on day 0, cells were exposed to the new portions of drugs on day 4, 7, and 10. The differentiation was evaluated by NBT reduction assay (U937 and HL60) or by benzidine staining (K562).
# [12] = Metabolic stability in pooled human plasma at 37° C.; format: in vitro ADME
# Description: The mixture was incubated in a shaking water batch at 37° C. Aliquots (100 μl) of the incubation solutions were withdrawn in triplicate (n=3) at the designed incubation period (0, 15, 30, 60 and 120 minutes), and plasma protein was immediately precipitated using acetonitrile containing 0.1% formic acid (300 μl). […] After centrifugation, the supernatant was directly introduced for LC-MS-MS analysis.
smiles,measurement,setting,value
"CCCCCCCC/C=C/CCCCCCCC(=O)OC[C@H]1O[C@@H](n2cnc(N)nc2=O)[C@H](O)[C@@H]1O [CP, 5-azacytidine 5′-elaidate]",IC50,[1],17 ± 15.7 µM
same,IC50,[2],14.8 ± 12.8 µM
same,IC50,"[3]; DU145, 24 hour treatment",6.79 µM
same,IC50,"[3]; DU145, 48 hour treatment",6.31 µM
same,IC50,"[3]; DU145, 72 hour treatment",5.88 µM
same,IC50,"[4]; 5637, 24 hour treatment",9.39 µM
same,IC50,"[4]; 5637, 48 hour treatment",5.95 µM
same,IC50,"[4]; 5637, 72 hour treatment",3.52 µM
same,IC50,"[5]; MCF-7, 24 hour treatment",19.1 µM
same,IC50,"[5]; MCF-7, 48 hour treatment",9.32 µM
same,IC50,"[5]; MCF-7, 72 hour treatment",9.99 µM
same,IC50,"[6]; K562, 24 hour treatment",1.26 µM
same,IC50,"[6]; K562, 48 hour treatment",0.92 µM
same,IC50,"[7]; U937, 24 hour treatment",0.44 µM
same,IC50,"[7]; U937, 48 hour treatment",0.6 µM
same,IC50,"[7]; U937, 72 hour treatment",0.87 µM
same,IC50,"[8]; HL60, 24 hour treatment",3.19 µM
same,IC50,"[8]; HL60, 48 hour treatment",3.6 µM
same,IC50,"[8]; HL60, 72 hour treatment",2.68 µM
same,IC50,[9]; 24 hour treatment,1.19 µM
same,IC50,[9]; 48 hour treatment,0.88 µM
same,IC50,[9]; 72 hour treatment,0.84 µM
same,Ct ER β,[10],32.97
same,delta,[10],7.06
same,Delta delta,[10]; versus untreated,−2.40
same,differentiation induction,[11],did not induce significant differentiation
same,half-life at 0.1 μM,[12]; 0.1 μM,2.68 h
same,"% Remaining of initial (mean ± SD, n = 3)","[12]; 0.1 μM, 0 min",100%
same,"% Remaining of initial (mean ± SD, n = 3)","[12]; 0.1 μM, 15 min",95.8 ± 3.0%
same,"% Remaining of initial (mean ± SD, n = 3)","[12]; 0.1 μM, 30 min",95.0 ± 2.0%
same,"% Remaining of initial (mean ± SD, n = 3)","[12]; 0.1 μM, 60 min",92.1 ± 3.4%
same,"% Remaining of initial (mean ± SD, n = 3)","[12]; 0.1 μM, 120 min",59.0 ± 1.6%
same,half-life at 1 μM,[12]; 1 μM,2.17 h
same,"% Remaining of initial (mean ± SD, n = 3)","[12]; 1 μM, 0 min",100%
same,"% Remaining of initial (mean ± SD, n = 3)","[12]; 1 μM, 15 min",93.3 ± 1.1%
same,"% Remaining of initial (mean ± SD, n = 3)","[12]; 1 μM, 30 min",88.9 ± 1.1%
same,"% Remaining of initial (mean ± SD, n = 3)","[12]; 1 μM, 60 min",79.8 ± 2.6%
same,"% Remaining of initial (mean ± SD, n = 3)","[12]; 1 μM, 120 min",52.5 ± 3.1%
same,half-life at 3 μM,[12]; 3 μM,2.35 h
same,"% Remaining of initial (mean ± SD, n = 3)","[12]; 3 μM, 0 min",100%
same,"% Remaining of initial (mean ± SD, n = 3)","[12]; 3 μM, 15 min",99.0 ± 3.5%
same,"% Remaining of initial (mean ± SD, n = 3)","[12]; 3 μM, 30 min",96.0 ± 3.0%
same,"% Remaining of initial (mean ± SD, n = 3)","[12]; 3 μM, 60 min",85.4 ± 3.4%
same,"% Remaining of initial (mean ± SD, n = 3)","[12]; 3 μM, 120 min",56.6 ± 1.6%
same,half-life at 10 μM,[12]; 10 μM,1.43 h
same,"% Remaining of initial (mean ± SD, n = 3)","[12]; 10 μM, 0 min",100%
same,"% Remaining of initial (mean ± SD, n = 3)","[12]; 10 μM, 15 min",96.0 ± 2.0%
same,"% Remaining of initial (mean ± SD, n = 3)","[12]; 10 μM, 30 min",93.1 ± 0.0%
same,"% Remaining of initial (mean ± SD, n = 3)","[12]; 10 μM, 60 min",77.1 ± 3.1%
same,"% Remaining of initial (mean ± SD, n = 3)","[12]; 10 μM, 120 min",39.1 ± 1.7%
same,half-life at 30 μM,[12]; 30 μM,1.82 h
same,"% Remaining of initial (mean ± SD, n = 3)","[12]; 30 μM, 0 min",100%
same,"% Remaining of initial (mean ± SD, n = 3)","[12]; 30 μM, 15 min",97.7 ± 3.5%
same,"% Remaining of initial (mean ± SD, n = 3)","[12]; 30 μM, 30 min",90.4 ± 2.6%
same,"% Remaining of initial (mean ± SD, n = 3)","[12]; 30 μM, 60 min",78.5 ± 1.7%
same,"% Remaining of initial (mean ± SD, n = 3)","[12]; 30 μM, 120 min",47.4 ± 1.1%
